These results are taken from DBAASP.

In general, MIC refers to the lowest concentration found to suppress growth. Low values mean inhibition by little substance, high ones a need for much substance.

In brackets after ≈: the same amount, converted by molar mass.

Common to all, as to assay: ≥ marks a high value that may be exact or a test limit, other limits are often not marked, values filed in µg/mL are converted to µM
Assay [1] relates to Staphylococcus aureus.
In assay [2] the test system is Vibrio alginolyticus.
Assay [3] has as its system Vibrio fluvialis.
Assay [4] deals with Aeromonas hydrophila.
Assay [5] has as its system Escherichia coli.
The subject of assay [6] is Vibrio parahaemolyticus.
Assay [7] deals with Streptococcus pyogenes.
Assay [8] concerns Bacillus cereus ATCC 10876.
Assay [9] relates to Staphylococcus aureus ATCC 29213.
In assay [10] the test system is Staphylococcus aureus ATCC 6538.
Assay [11] deals with Streptococcus dysgalactiae subsp. dysgalactiae ATCC 27957.
Assay [12] deals with Salmonella enterica subsp. enterica serovar Typhimurium ATCC 14028.
For assay [13], the system named is Streptococcus iniae KCTC 3657.
The subject of assay [14] is Streptococcus equi subsp. zooepidemicus ATCC 43079.
Assay [15] deals with Pseudomonas aeruginosa ATCC 27853.
Assay [16] concerns Enterococcus faecalis ATCC 29212.
The subject of assay [17] is Klebsiella pneumoniae.
Assay [18] relates to Streptococcus agalactiae ATCC 27956.
The subject of assay [19] is Escherichia coli ATCC 25922.
Assay [20] relates to Staphylococcus aureus ATCC 25923.
In assay [21] the test system is Staphylococcus aureus BNCC 186335.
Assay [22] deals with Listeria monocytogenes.
The test system of assay [23] is Escherichia coli BNCC 133264.
Assay [24] deals with Pseudomonas aeruginosa BNCC 125486.

Take `CC[C@H](C)[C@H](NC(=O)[C@H](CCCCN)NC(=O)[C@H](Cc1cnc[nH]1)NC(=O)[C@H](CC(C)C)NC(=O)[C@H](CC(C)C)NC(=O)[C@H](Cc1ccccc1)NC(=O)[C@H](CC(N)=O)NC(=O)[C@@H](N)C(C)C)C(=O)N[C@@H](Cc1ccc(O)cc1)C(=O)NCC(=O)N[C@@H](CC(N)=O)C(=O)N[C@H](C(=O)N[C@@H](CCCN=C(N)N)C(=O)N[C@@H](Cc1ccc(O)cc1)C(=O)N[C@@H](CO)C(=O)O)[C@@H](C)CC` [VNFLLHKIYGNIRYS]: the MIC in [1] was 34 µM (≈ 62.5 µg/mL); in assay [2], 2.12 µM (≈ 3.9 µg/mL); in assay [3], ≥ 34 µM; in [4] it was 2.12 µM (≈ 3.9 µg/mL); in assay [5], 2.12 µM (≈ 3.9 µg/mL); in assay [6], 17 µM (≈ 31.2 µg/mL). In addition, the minimum inhibitory concentration (MIC) in assay [7] was ≥ 34 µM.
As for `CC[C@H](C)[C@H](NC(=O)[C@H](CCCN=C(N)N)NC(=O)[C@H](Cc1c[nH]c2ccccc12)NC(=O)CNC(=O)[C@H](Cc1ccc(O)cc1)NC(=O)[C@H](CCCN=C(N)N)NC(=O)[C@H](CCCN=C(N)N)NC(=O)[C@H](C)NC(=O)[C@H](Cc1ccccc1)NC(=O)[C@H](CCCN=C(N)N)NC(=O)CNC(=O)[C@H](C)NC(=O)CNC(=O)[C@H](CCCN=C(N)N)NC(=O)[C@@H](NC(=O)[C@H](Cc1ccccc1)NC(=O)[C@H](CCCN=C(N)N)NC(=O)[C@H](CCCN=C(N)N)NC(=O)[C@H](Cc1c[nH]c2ccccc12)NC(=O)[C@H](CCCN=C(N)N)NC(=O)[C@H](CO)NC(=O)[C@H](CCCN=C(N)N)NC(=O)[C@@H](N)[C@@H](C)O)[C@@H](C)CC)C(=O)N[C@@H](C)C(=O)O` [TRSRWRRFIRGAGRFARRYGWRIA], the MIC was 3.28 µM (≈ 10 µg/mL) in assay [8]; > 41.9 µM in assay [9]; 1.3 µM (≈ 3.97 µg/mL) in assay [10]; 13.1 µM (≈ 40 µg/mL) in assay [11]; 0.164 µM (≈ 0.5 µg/mL) in assay [12]; 10.5 µM (≈ 32 µg/mL) in assay [13]. In addition, the MIC in assay [14] came to 6.6 µM (≈ 20.1 µg/mL); in assay [15], 0.983 µM (≈ 3 µg/mL); in [16], 13.1 µM (≈ 40 µg/mL); in [17], 0.387 µM (≈ 1.18 µg/mL); in [18] it was 13.1 µM (≈ 40 µg/mL); in assay [5], 1.54 µM (≈ 4.7 µg/mL). Further, the MIC in assay [19] came out at 0.328 µM (≈ 1 µg/mL).
With `CC[C@H](C)[C@H](NC(=O)[C@H](CCCCN)NC(=O)[C@H](CC(N)=O)NC(=O)[C@H](CC(C)C)NC(=O)[C@@H](NC(=O)[C@H](CCCCN)NC(=O)[C@@H]1CCCN1)[C@@H](C)CC)C(=O)N[C@@H](CC(C)C)C(=O)NCC(=O)N[C@@H](CCCCN)C(=O)N[C@H](C(=O)N[C@@H](CC(C)C)C(=O)N[C@@H](CCCN=C(N)N)C(=O)N[C@@H](CC(C)C)C(=O)N[C@@H](C)C(=O)N[C@@H](C)C(=O)N[C@@H](C)C(=O)N[C@@H](Cc1ccccc1)C(=O)N[C@@H](CCCCN)C(N)=O)[C@@H](C)CC` [PKILNKILGKILRLAAAFK], the MIC in assay [20] was found to be 3 µM (≈ 6.32 µg/mL); in [21], 0.949 µM (≈ 2 µg/mL); in assay [22], 1.9 µM (≈ 4 µg/mL); in assay [23] it was 1.9 µM (≈ 4 µg/mL); in [15], 1.5 µM (≈ 3.16 µg/mL); in assay [17] it was 6.25 µM (≈ 13.2 µg/mL). The MIC in assay [5] came to 1.9 µM (≈ 4 µg/mL); in [19], 1.5 µM (≈ 3.16 µg/mL); in assay [24], 1.9 µM (≈ 4 µg/mL).
